This assay deals with T1, BaF3 TELJAK3 cells (Homo sapiens, UniProt P52333).
T1 construct: fused on or other part: TEL (ETV6) N-terminal part, coding nucleotides 1-487, serves as the oligomerising partner; It is fused through a Sal I site to the JAK3 kinase domain and expressed from pTRE2 in BaF3 cells bearing pTET-off; P41212 (Transcription factor ETV6)
T1 sequence (P52333 1-1124): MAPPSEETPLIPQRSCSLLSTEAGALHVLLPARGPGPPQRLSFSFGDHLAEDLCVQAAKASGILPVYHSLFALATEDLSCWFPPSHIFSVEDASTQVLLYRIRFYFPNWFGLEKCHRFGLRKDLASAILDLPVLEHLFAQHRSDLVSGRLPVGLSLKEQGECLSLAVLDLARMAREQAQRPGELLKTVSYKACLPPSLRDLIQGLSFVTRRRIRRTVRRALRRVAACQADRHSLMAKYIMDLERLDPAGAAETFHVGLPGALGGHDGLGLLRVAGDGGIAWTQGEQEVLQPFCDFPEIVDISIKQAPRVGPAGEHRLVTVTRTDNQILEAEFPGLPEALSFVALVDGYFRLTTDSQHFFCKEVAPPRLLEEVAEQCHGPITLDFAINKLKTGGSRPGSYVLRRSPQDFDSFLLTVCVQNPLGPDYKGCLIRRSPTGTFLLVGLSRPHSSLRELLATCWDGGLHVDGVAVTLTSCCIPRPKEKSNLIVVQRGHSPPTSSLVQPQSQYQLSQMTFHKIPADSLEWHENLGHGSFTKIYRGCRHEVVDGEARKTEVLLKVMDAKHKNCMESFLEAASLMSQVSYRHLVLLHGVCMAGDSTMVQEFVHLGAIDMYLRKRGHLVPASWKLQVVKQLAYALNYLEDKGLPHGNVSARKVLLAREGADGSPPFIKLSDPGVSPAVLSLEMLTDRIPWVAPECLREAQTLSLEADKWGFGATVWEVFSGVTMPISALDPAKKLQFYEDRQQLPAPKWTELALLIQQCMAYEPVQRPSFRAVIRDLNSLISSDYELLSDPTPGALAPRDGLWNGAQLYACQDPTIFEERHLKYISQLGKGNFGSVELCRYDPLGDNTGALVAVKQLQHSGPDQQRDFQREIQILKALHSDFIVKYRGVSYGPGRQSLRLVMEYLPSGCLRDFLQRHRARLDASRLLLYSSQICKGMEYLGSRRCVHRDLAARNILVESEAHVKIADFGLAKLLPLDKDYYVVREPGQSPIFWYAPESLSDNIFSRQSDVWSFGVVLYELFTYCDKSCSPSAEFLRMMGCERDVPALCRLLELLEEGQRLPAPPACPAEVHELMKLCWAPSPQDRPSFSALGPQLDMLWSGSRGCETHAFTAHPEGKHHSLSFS
The assay can be described thus: Cellular screening, BaF3 TEL:JAK3 cells, Alamar Blue. It counts as cell-based. The following applies: 40 hr, read-out: BafT_J3 IC50_nM. Here is the method:
For screening purposes, compounds were diluted in 96 well plates at a concentration of 20 μM. Plates were warmed at 37° C. for 30 minutes before the assay was performed.
The coding region encompassing nucleotides 1-487 of TEL was amplified by PCR using the oligonucleotides STEL (5′-GGAGGATCCTGATCTCTCTCGCTGTGAGAC-3′) [SEQ ID NO 14] and 3TEL (5′-AGGC GTCGACTTCTTCTTCATGGTTCTG-3′) [SEQ ID NO 15] and U937 mRNA as a template. A […] restriction site was incorporated into the STEL primer, and a Sal I restriction site was incorporated into the 3TEL primer. The regions encompassing the kinase domain of JAK2 (nucleotides 2994-3914; JAK2F 5′-ACGC GTCGACGGTGCCTTTGAAGACCGGGAT-3′ [SEQ ID NO 16]; JAK2R 5′-ATAGTTTAGCGGCCGCTCAGAATGAAGGTCATTT-3′) [SEQ ID NO 17] and JAK3 (nucleotides 2520-3469; JAK3F 5′-GAAGTCGACTATGCCTGCCAAGACCCCACGATCTT-3′) [SEQ ID NO 18] were generated by PCR using Taq DNA polymerase (Gibco/BRL) and […] as a template. A Sal I restriction site was incorporated into the forward primer of JAK2 and JAK3, a Not I site was incorporated into the JAK2 reverse primer and a Xba I site was added to the reverse primer of JAK3.
The TEL/Jak3 fusion was prepared by ligation of the JAK3 Sal I/Not I cleaved kinase domain PCR product with the BamH I/Sal I restriction digested TEL product, followed by ligation of the ligation product into the BamH I/Not I digested pTRE2, to give the TEL/Jak3 fusion plasmid pTELJAK3.
The growth factor dependant myelomonocytic cell line BaF3 bearing the pTET-off plasmid (Clontech) was transfected with either pTELJAK2 or pTELJAK3, and the transfected cells were selected for growth-factor independent cell growth. The BaF3 wild-type cells were cultured in DMEM containing 10% FCS, 10% WEHI 3B conditioned medium. The BaF3 TELJAK cells ([…]) were cultured in DMEM 10% Tet-System Approved FBS (without WEHI 3B conditioned medium).
Cell suspensions were prepared by harvesting cells from culture (the cells used in this test were in late log phase growth with high viability.) Cells were diluted in the appropriate growth medium, as described above, to 1.1× final concentration (from 50,000 cell/mL to 200,000 cell/mL, depending on cell line).
Compounds to be tested were added (10 μL, 10× final concentration) to a flat bottomed 96-well plate. The cellular suspension (90 μL per well) was then added, and the plate incubated for 40 hr at 37° C., 5% CO2. Alamar Blue 10 μL per well was added and the plates returned to the incubator for a further 4-6 hours. The plates were then read at 544 nm.
For orientation: Alamar Blue is a resazurin reagent that responds to reducing activity.
With `C=CC(=O)Nc1ccc(Sc2nc(Nc3ccc(N4CCOCC4)cc3)ncc2C)cc1C` [Compound 259], the GI50 was under 1000 nM.

Consider `C=CC(=O)Nc1ccc(Sc2nc(Nc3ccc(N4CCOCC4)cc3)ncc2C)cc1CC` [Compound 260, N-(2-ethyl-4-(5-methyl-2-(4-morpholinophenylao)pyrimidin-4-ylthio)phenyl)acrylamide], for which the GI50 is under 5000 nM.

On to `C=CC(=O)N(C)c1ccc(Sc2nc(Nc3ccc(N4CCOCC4)cc3)ncc2Br)cc1` [Compound 261, N-(4-(5-bromo-2-(4-morpholinophenylao)pyrimidin-4-ylthio)phenyl)-N-methylacrylamide], for which the GI50 is under 1000 nM.

For the compound `Cc1cnc(Nc2ccc(N3CCOCC3)cc2)nc1Sc1ccc(N)nc1` [Compound 262, 4-(6-aopyridin-3-ylthio)-5-methyl-N-(4-morpholinophenyl)pyrimidin-2-ae], the GI50 is over 20000 nM.

Regarding `Nc1ccc(Sc2nc(Nc3ccc(N4CCOCC4)cc3)ncc2F)cc1` [Compound 263, 4-(4-aophenylthio)-5-fluoro-N-(4-morpholinophenyl)pyrimidin-2-ae], the GI50 is under 5000 nM.

For `Nc1ccc(Sc2nc(Nc3cccc(N4CCOCC4)c3)ncc2I)cc1` [Compound 264, 4-(4-aophenylthio)-5-iodo-N-(3-morpholinophenyl)pyrimidin-2-ae], the GI50 was under 5000 nM.

`C=CC(=O)Nc1ccc(Sc2nc(Nc3cccc(N4CCOCC4)c3)ncc2F)cc1` [Compound 267, N-(4-(5-fluoro-2-(3-morpholinophenylao)pyrimidin-4-ylthio)phenyl)acrylamide]: the GI50 was under 1000 nM.

On to `C=CC(=O)Nc1ccc(Sc2nc(Nc3ccc(N4CCOCC4)cc3)ncc2F)cc1` [Compound 268, N-(4-(5-fluoro-2-(4-morpholinophenylao)pyrimidin-4-ylthio)phenyl)acrylamide], for which the GI50 was under 1000 nM.

In the case of `C=CC(=O)Nc1ccc(Sc2nc(Nc3cccc(N4CCOCC4)c3)ncc2I)cc1` [Compound 269, N-(4-(5-iodo-2-(3-morpholinophenylao)pyrimidin-4-ylthio)phenyl)acrylamide], the GI50 was under 1000 nM.

As to `C=CC(=O)Nc1ccc(Sc2ccnc(Nc3ccc(O)cc3)n2)cc1` [Compound 276, N-(4-(2-(4-hydroxyphenylao)pyrimidin-4-ylthio)phenyl)acrylamide], the GI50 was under 1000 nM.

With `C=CC(=O)Nc1ccc(Sc2ccnc(Nc3cccc(O)c3)n2)cc1` [Compound 277, N-(4-(2-(3-hydroxyphenylao)pyrimidin-4-ylthio)phenyl)acrylamide], the GI50 was under 1000 nM.

With `C=CC(=O)Nc1ccc(Sc2ccnc(Nc3cccc(CO)c3)n2)cc1` [Compound 278, N-(4-(2-(3-(hydroxymethyl)phenylao)pyrimidin-4-ylthio)phenyl)acrylamide], the GI50 is under 1000 nM.

On to `C=CC(=O)Nc1ccc(Sc2nc(Nc3cccc(CO)c3)ncc2C)cc1` [Compound 280, N-(4-(2-(3-(hydroxymethyl)phenylao)-5-methylpyrimidin-4-ylthio)phenyl)acrylamide], for which the GI50 is under 1000 nM.

`C=CC(=O)Nc1ccc(Sc2nc(Nc3ccc(NS(C)(=O)=O)cc3)ncc2C)cc1` [Compound 285, N-(4-(5-methyl-2-(4-(methylsulfonamido)phenylao)pyrimidin-4-ylthio)phenyl)acrylamide]: the GI50 was under 1000 nM.

For the compound `C=CC(=O)Nc1ccc(Sc2nc(Nc3ccc(N4CCC(CO)CC4)cc3)ncc2C)cc1` [Compound 286, N-(4-(2-(4-(4-(hydroxymethyl)piperidin-1-yl)phenylao)-5-methylpyrimidin-4-ylthio)phenyl)acrylamide], the GI50 was under 1000 nM.

Take `C=CC(=O)Nc1ccc(Sc2nc(Nc3cccc(NS(C)(=O)=O)c3)ncc2C)cc1` [Compound 288, N-(4-(5-methyl-2-(3-(methylsulfonamido)phenylao)pyrimidin-4-ylthio)phenyl)acrylamide]: the GI50 was under 1000 nM.

`C=CC(=O)Nc1ccc(Sc2nc(Nc3ccc(OCCN4CCOCC4)cc3)ncc2C)cc1` [Compound 290, N-(4-(5-methyl-2-(4-(2-morpholinoethoxy)phenylao)pyrimidin-4-ylthio)phenyl)acrylamide]: the GI50 is under 1000 nM.

With `C=CC(=O)Nc1ccc(Sc2nc(Nc3ccc(OCCCN(CC)CC)cc3)ncc2C)cc1` [Compound 291, N-(4-(2-(4-(3-(diethylao)propoxy)phenylao)-5-methylpyrimidin-4-ylthio)phenyl)acrylamide], the GI50 was under 1000 nM.

Take `C=CC(=O)Nc1ccc(Sc2nc(Nc3ccc(OC)c(NS(C)(=O)=O)c3)ncc2C)cc1` [Compound 293, N-(4-(2-(4-methoxy-3-(methylsulfonamido)phenylao)-5-methylpyrimidin-4-ylthio)phenyl)acrylamide]: the GI50 was under 1000 nM.

Consider `C=CC(=O)Nc1ccc(Sc2nc(Nc3ccc(N4CCC(O)C4)cc3)ncc2C)cc1` (stereo not drawn) [Compound 295, N-(4-(2-(4-(3-hydroxypyrrolidin-1-yl)phenylao)-5-methylpyrimidin-4-ylthio)phenyl)acrylamide], for which the GI50 is under 1000 nM.

On to `C=CC(=O)Nc1ccc(Sc2nc(Nc3ccc(NS(C)(=O)=O)c(OC)c3)ncc2C)cc1` [Compound 296, N-(4-(2-(3-methoxy-4-(methylsulfonamido)phenylao)-5-methylpyrimidin-4-ylthio)phenyl)acrylamide], for which the GI50 is under 1000 nM.

As to `C=CC(=O)Nc1ccc(Sc2nc(Nc3ccc(N4CCCC(O)C4)cc3)ncc2C)cc1` (stereo not drawn) [Compound 299, N-(4-(2-(4-(3-hydroxypiperidin-1-yl)phenylao)-5-methylpyrimidin-4-ylthio)phenyl)acrylamide], the GI50 was under 1000 nM.

With `C=CC(=O)Nc1ccc(Sc2nc(Nc3ccc(N4CCOCC4)cc3)ncc2Br)cc1` [Compound 306, N-(4-(5-bromo-2-(4-morpholinophenylao)pyrimidin-4-ylthio)phenyl)acrylamide], the GI50 is under 1000 nM.

Turning to `O=C(/C=C/Cl)Nc1cccc(Sc2ccnc(Nc3ccc(N4CCOCC4)cc3)n2)c1` [Compound 340, (E)-3-chloro-N-(3-(2-(4-morpholinophenylao)pyrimidin-4-ylthio)phenyl)acrylamide], the GI50 is under 1000 nM.
